Where a name gives a salt, the structure may show the parent alone. Read-outs that look alike come from different tables or passages of the source.

As a reminder, the inhibition is the drop in the measured response relative to a control, in per cent. As a reminder, the % inhibition is the drop in the measured response relative to a control, in per cent. As a reminder, the IC50 is the concentration that inhibits the measured activity by half.

The target in this assay is T1, His6-AspH315–758 (human aspartate/asparagine-β-hydroxylase, AspH) (Homo sapiens, UniProt Q12797).
T1 construct: N-Terminally His6-tagged human AspH315–758 (His6-AspH315–758) was produced in E. coli BL21 (DE3) cells; made in house; host or cells: E. coli BL21 (DE3), pET-28a(+) vector
T1 sequence (Q12797 315-758): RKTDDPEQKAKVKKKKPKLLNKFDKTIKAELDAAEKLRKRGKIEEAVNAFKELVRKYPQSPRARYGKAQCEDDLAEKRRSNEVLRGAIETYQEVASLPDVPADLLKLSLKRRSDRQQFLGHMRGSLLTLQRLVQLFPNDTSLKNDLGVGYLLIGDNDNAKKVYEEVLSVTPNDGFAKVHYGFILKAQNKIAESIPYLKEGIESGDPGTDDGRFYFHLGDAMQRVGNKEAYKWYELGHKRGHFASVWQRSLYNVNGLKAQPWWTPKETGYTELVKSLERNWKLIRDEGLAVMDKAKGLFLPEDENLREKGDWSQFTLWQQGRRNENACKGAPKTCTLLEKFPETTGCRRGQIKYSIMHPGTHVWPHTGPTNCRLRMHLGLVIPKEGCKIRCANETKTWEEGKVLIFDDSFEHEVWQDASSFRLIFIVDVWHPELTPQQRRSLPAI
As to the kind of experiment: SPE-MS AspH inhibition assay (LOPAC screen at fixed 20 μM and IC50 dose-response), hydroxylation of cyclic peptide hFX-CP101–119. Type of assay: biochemical. Conditions: for inhibition at 20 µM: read-out: Plate 2 (% inhibition); for Plate 5 (% inhibition) / Plate 5 (% conversion): plate 5 (Pfitzer), test compounds at fixed 20 μM; for Plate 5 (% conversion): mean conversion DMSO 32.88.

Setting [1] is: LOPAC Plate 4, compound at 20 uM, substrate conversion.
The mark [2] stands for this setting: LOPAC compound at fixed 20 uM, plate 1, normalised to DMSO and 2,4-PDCA controls.
Setting [3] is: LOPAC compound at fixed 20 uM, substrate conversion, plate 1.
[4] abbreviates: LOPAC compound at 20uM, plate 2, conversion of substrate peptide.
The mark [5] stands for this setting: LOPAC compound at 20uM, plate 2, normalised to DMSO and 2,4-PDCA controls.
Setting [6] is: LOPAC compound at 20uM, plate 3, conversion of substrate peptide.

`CCNc1nc2c(ncn2[C@H]2C[C@H](O)[C@@H](CO)O2)c(=O)[nH]1` [N2-Ethyl-2-deoxyguanosine]: the “% conversion” value under setting [1] was 26.09%.

As for `Nc1ccc(CCNc2ncnc3c2ncn3[C@@H]2O[C@H](CO)[C@@H](O)[C@H]2O)cc1` [N6-2-(4-Aminophenyl)ethyladenosine], under setting [2], the “Plate 1 (% inhibition)” value is -0.97%. Under setting [3], the “Plate 1 (% conversion)” value worked out at 36.20%.

As to `OC[C@H]1O[C@@H](n2cnc3c(NC4CCCC4)ncnc32)[C@H](O)[C@@H]1O` [N6-Cyclopentyladenosine], under setting [2], the “Plate 1 (% inhibition)” value is -4.07%.

As to `CN(C)C(=O)N=NC(=O)N(C)C` [N,N,N,N-Tetramethylazodicarboxamide], the “Plate 2 (% conversion)” value under setting [4] was found to be 38.74%. The “Plate 2 (% inhibition)” value under setting [5] is given as -8.32%.

In the case of `Nc1ccc(N2C(=O)c3ccccc3C2=O)c(Cl)c1` [N-(4-Amino-2-chlorophenyl)phthalimide], under setting [2], the “Plate 1 (% inhibition)” value is listed as -9.54%. Further, under setting [3], the “Plate 1 (% conversion)” value was determined as 39.07%.

As for `CC(=O)NCCc1c[nH]c2ccc(O)cc12` [N-Acetyl-5-hydroxytryptamine], the “Plate 1 (% conversion)” value is 34.66% and the “Plate 1 (% inhibition)” value is reported as 3.61%.

On to `CC(=O)N[C@@H](CS)C(=O)O` [N-Acetyl-L-Cysteine], for which, under setting [2], the “Plate 1 (% inhibition)” value is given as 6.30%. Moreover, the “Plate 1 (% conversion)” value under setting [3] amounted to 33.76%.

Take `CCN(CC)CCNC(=O)c1ccc(NC(C)=O)cc1.Cl` [N-Acetylprocainamide hydrochloride]: the “Plate 1 (% inhibition)” value under setting [2] came out at 3.70%. Besides, under setting [3], the “Plate 1 (% conversion)” value was 34.63%.

As for `CC(=O)NCCc1c[nH]c2ccccc12` [N-Acetyltryptamine], under setting [2], the “Plate 1 (% inhibition)” value is reported as -6.27%. Moreover, the “Plate 1 (% conversion)” value under setting [3] stood at 37.98%.

For `CC(=O)NBr` [N-Bromoacetamide], under setting [2], the “Plate 1 (% inhibition)” value came to 71.66%. For the same compound, under setting [3], the “Plate 1 (% conversion)” value was 11.81%.

Regarding `Clc1ccc2c(c1)N=C(N1CCNCC1)c1ccccc1N2` [N-Desmethylclozapine], under setting [5], the inhibition at 20 µM was -3.91%.

Turning to `CN1C[C@H](O)[C@@H](O)[C@H](O)[C@H]1CO` [N-Methyl-1-deoxynojirimycin], the “Plate 2 (% conversion)” value under setting [4] came to 34.79%. Also, the “Plate 2 (% inhibition)” value under setting [5] turned out to be 3.48%.

As to `CNC(=O)c1cc2c(cn1)[nH]c1ccccc12` [N-Methyl-beta-carboline-3-carboxamide], the “Plate 2 (% conversion)” value under setting [4] was determined as 36.80%. Moreover, under setting [5], the “Plate 2 (% inhibition)” value is given as -2.54%.

`CNCCc1ccc(O)c(O)c1.Cl` [N-Methyldopamine hydrochloride]: the “Plate 2 (% conversion)” value was 9.52%. Besides, the “Plate 2 (% inhibition)” value under setting [5] came to 78.96%.

In the case of `CNCCc1cnc(CCC(c2ccccc2)c2ccccc2)[nH]1.O=C(O)C(=O)O.O=C(O)C(=O)O` [N-Methylhistaprodifen dioxalate salt], under setting [4], the “Plate 2 (% conversion)” value came out at 8.76%. Also, under setting [5], the “Plate 2 (% inhibition)” value came out at 81.23%.

For the compound `CCCCCCCC/C=C\CCCCCCCC(=O)NCCc1ccc(O)c(O)c1` [N-Oleoyldopamine], the “% inhibition” value (LOPAC Plate 4, compound at 20 uM) amounted to 94.15%. Besides, under setting [1], the “% conversion” value is on record as 4.34%.

Turning to `O=C(O)c1ccccc1Nc1ccccc1` [N-Phenylanthranilic acid], under setting [2], the “Plate 1 (% inhibition)” value was found to be 20.57%. The “Plate 1 (% conversion)” value under setting [3] is 28.96%.

As for `NS(=O)(=O)c1cccc2c1c([N+](=O)[O-])cc1nc([O-])c([O-])nc12.[Na+].[Na+]` [NBQX disodium], under setting [6], the “Plate 3 (% conversion)” value came to 7.99%.

For the compound `O=C(O)/C=C1\CCCc2ccccc2C1O` (centres unmarked) [NCS-382], the “Plate 3 (% conversion)” value under setting [6] is listed as 38.57%.

In the case of `O=C(Nc1cccc(C(=O)Nc2ccc(S(=O)(=O)O)c3cc(S(=O)(=O)O)cc(S(=O)(=O)O)c23)c1)Nc1cccc(C(=O)Nc2ccc(S(=O)(=O)O)c3cc(S(=O)(=O)O)cc(S(=O)(=O)O)c23)c1` [NF 023, reference compound], the “Plate 3 (% conversion)” value under setting [6] is 4.28%.

In the case of `[H]/N=C(/NC)NCCC[C@H](N)C(=O)O` [NG-Monomethyl-L-arginine acetate], the “Plate 3 (% conversion)” value under setting [6] turned out to be 38.37%.

For the compound `N=C(NCCC[C@H](N)C(=O)O)N[N+](=O)[O-]` [NG-Nitro-L-arginine], under setting [6], the “Plate 3 (% conversion)” value worked out at 40.79%.

Take `CC(C)[C@H]1c2ccc(F)cc2CC[C@@]1(CCN(C)CCCc1nc2ccccc2[nH]1)OC(=O)C1CC1` [NNC 55-0396]: the “Plate 3 (% conversion)” value under setting [6] turned out to be 58.37%.

As to `O=C(O)C(=O)N[C@H](Cc1ccccc1)C(=O)O` [NOFD, N-oxalyl-D-phenylalanine, reference compound], the “IC50 [μM]” value (50 nM His6-AspH315–758, 1.0 μM hFX-CP101–119, 3 μM 2OG, 2 μM Fe(II), 50 mM HEPES pH 7.5, 20 °C, mean ± SD, n = 2 (2,4-PDCA n = 10)) was “weak”. The IC50 (50 nM His6-AspH315–758, 1.0 μM hFX-CP101–119, 3 μM 2OG, 2 μM Fe(II), 50 mM HEPES pH 7.5, 20 °C, mean ± SD, n = 2 (2,4-PDCA n = 10), read-out: IC50) was found to be 15.5 ± 3.13 µM.

For the compound `O=C(Nc1cc(C(F)(F)F)cc(C(F)(F)F)c1)Nc1c(Br)cc(Br)cc1-c1nn[nH]n1` [NS5806], the “Plate 2 (% conversion)” value under setting [4] came out at 28.28%. Under setting [5], the “Plate 2 (% inhibition)” value worked out at 22.93%.

As for `Cl.c1ccc2c(c1)CCC[C@H]2Nc1nc2ccccc2[nH]1` [NS8593 hydrochloride], the “Plate 2 (% conversion)” value under setting [4] worked out at 39.37%. Also, the “Plate 2 (% inhibition)” value under setting [5] is given as -10.19%.

Consider `O=c1onc2n1-c1cc(Br)ccc1OC2` [NS 2028], for which the “Plate 3 (% conversion)” value under setting [6] was found to be 35.06%.

Take `O=c1[nH]c2cc(C(F)(F)F)ccc2n1-c1cc(C(F)(F)F)ccc1O` [NS-1619]: under setting [6], the “Plate 3 (% conversion)” value was 36.56%.

As for `O=C1C(SCCO)=C(SCCO)C(=O)c2ccccc21` [NSC 95397], the “Plate 2 (% conversion)” value is reported as 23.59%. Further, the “Plate 2 (% inhibition)” value (20 µM) was 36.92%.

As to `CN(C)C(N)=NCCC[C@H](N)C(=O)O.Cl` [N^G,N^G-Dimethylarginine hydrochloride], the “Plate 2 (% conversion)” value under setting [4] was 37.98%. In addition, the “Plate 2 (% inhibition)” value under setting [5] is reported as -6.05%.

Turning to `COc1ccc2c(c1)CCC(c1ccccc1)=C2c1ccc(OCCN2CCCC2)cc1` [Nafoxidine], the “Plate 5 (% inhibition)” value is -70.28% and the “Plate 5 (% conversion)” value came to 60.23%.

Turning to `CCn1cc(C(=O)[O-])c(=O)c2ccc(C)nc21.[Na+]` [Nalidixic acid sodium], under setting [6], the “Plate 3 (% conversion)” value came out at 26.41%.

`C=CCN1CC[C@]23c4c5ccc(O)c4O[C@H]2C(=O)CC[C@@]3(O)[C@H]1C5` [Naloxone hydrochloride]: the “Plate 3 (% conversion)” value amounted to 40.30%.

In the case of `O=C1CC[C@@]2(O)[C@H]3Cc4ccc(O)c5c4[C@@]2(CCN3CC2CC2)[C@H]1O5` [Naltrexone hydrochloride], the “Plate 3 (% conversion)” value is recorded as 34.83%.

For `c1ccc2c(CC3=NCCN3)cccc2c1` [Naphazoline hydrochloride], the “Plate 3 (% conversion)” value under setting [6] worked out at 38.59%.

Consider `CNS(=O)(=O)CCc1ccc2[nH]cc(C3CCN(C)CC3)c2c1` [Naratriptan hydrochloride], for which the “Plate 2 (% conversion)” value under setting [4] stood at 39.49%. Also, the inhibition at 20 µM under setting [5] was -10.6%.

Turning to `Cc1cccc(C)c1NC(=O)CN1CCCC1=O` [Nefiracetam], the “Plate 2 (% conversion)” value was 34.89% and the inhibition at 20 µM worked out at 3.19%.

With `CS(=O)(=O)O.Cc1c(O)cccc1C(=O)N[C@@H](CSc1ccccc1)[C@H](O)CN1C[C@H]2CCCC[C@H]2C[C@H]1C(=O)NC(C)(C)C.O` [Nelfinavir mesylate hydrate], the “Plate 2 (% conversion)” value under setting [4] stood at 32.94%. Further, the “Plate 2 (% inhibition)” value under setting [5] is given as 9.02%.

For the compound `Cc1c(O)cccc1C(=O)N[C@@H](CSc1ccccc1)[C@H](O)CN1C[C@H]2CCCC[C@H]2C[C@H]1C(=O)NC(C)(C)C` [Nelfinavir], the “Plate 5 (% inhibition)” value came out at 38.58% and the “Plate 5 (% conversion)” value came out at 23.19%.

With `CCOC(=O)C1=C(C)NC(C)=C(C(=O)OCC)C1c1c(F)c(F)c(F)c(F)c1F` [Nemadipine-A], the “Plate 3 (% conversion)” value under setting [6] worked out at 41.91%.

On to `CN(C)C(=O)Oc1cccc([N+](C)(C)C)c1` [Neostigmine bromide], for which the “Plate 3 (% conversion)” value turned out to be 40.63%.

In the case of `COC(=O)C1=C(C)NC(C)=C(C(=O)OCCN(C)Cc2ccccc2)C1c1cccc([N+](=O)[O-])c1` (centres unmarked) [Nicardipine hydrochloride], the “Plate 3 (% conversion)” value under setting [6] is recorded as 44.76%.

`COC(=O)C1=C(C)NC(C)=C(C(=O)OC)C1c1ccccc1[N+](=O)[O-]` [Nifedipine]: the “Plate 3 (% conversion)” value turned out to be 39.50%.

For `O=C(O)c1cccnc1Nc1cccc(C(F)(F)F)c1` [Niflumic acid], the “Plate 3 (% conversion)” value under setting [6] turned out to be 32.98%.

On to `COCCOC(=O)C1=C(C)NC(C)=C(C(=O)OC(C)C)C1c1cccc([N+](=O)[O-])c1` (centres unmarked) [Nimodipine], for which the “Plate 3 (% conversion)” value under setting [6] came to 43.84%.

Take `Cc1ncc(CNC(=O)N(CCCl)N=O)c(N)n1` [Nimustine hydrochloride]: the “Plate 3 (% conversion)” value is given as 38.40%.

Consider `CNCCC(Oc1ccccc1OC)c1ccccc1` (centres unmarked) [Nisoxetine hydrochloride], for which the “Plate 3 (% conversion)” value is reported as 39.53%.

Values taken from article PMC7251097, “Aspartate/asparagine-β-hydroxylase: a high-throughput mass spectrometric assay for discovery of small molecule inhibitors” (Scientific Reports, 2020).
